BigSolDB 2.1

## C=CC(=O)NCO
In acetonitrile, 279.15 K
  solubility (mole fraction): 0.0244
In acetonitrile, 282.05 K
  solubility (mole fraction): 0.0276
In acetonitrile, 288.15 K
  solubility (mole fraction): 0.0341
In acetonitrile, 292.75 K
  solubility (mole fraction): 0.041
In acetonitrile, 298.15 K
  solubility (mole fraction): 0.0499
In acetonitrile, 304.05 K
  solubility (mole fraction): 0.0614
In acetonitrile, 308.55 K
  solubility (mole fraction): 0.0716
In chloroform, 279.65 K
  solubility (mole fraction): 0.0011
In chloroform, 282.35 K
  solubility (mole fraction): 0.0013
In chloroform, 286.05 K
  solubility (mole fraction): 0.0015
In chloroform, 289.85 K
  solubility (mole fraction): 0.0019
In chloroform, 294.45 K
  solubility (mole fraction): 0.0023
In chloroform, 299.15 K
  solubility (mole fraction): 0.0029
In chloroform, 303.25 K
  solubility (mole fraction): 0.0035
In dichloromethane, 277.55 K
  solubility (mole fraction): 0.0018
In dichloromethane, 280.35 K
  solubility (mole fraction): 0.0019
In dichloromethane, 282.95 K
  solubility (mole fraction): 0.0021
In dichloromethane, 285.55 K
  solubility (mole fraction): 0.0023
In dichloromethane, 288.15 K
  solubility (mole fraction): 0.0025
In dichloromethane, 291.75 K
  solubility (mole fraction): 0.0028
In ethyl acetate, 278.55 K
  solubility (mole fraction): 0.0109
In ethyl acetate, 281.85 K
  solubility (mole fraction): 0.0127
In ethyl acetate, 285.05 K
  solubility (mole fraction): 0.0146
In ethyl acetate, 289.15 K
  solubility (mole fraction): 0.0176
In ethyl acetate, 296.95 K
  solubility (mole fraction): 0.0248
In ethyl acetate, 300.95 K
  solubility (mole fraction): 0.0294
In ethyl acetate, 305.05 K
  solubility (mole fraction): 0.0351
In furan, 278.55 K
  solubility (mole fraction): 0.0445
In furan, 282.05 K
  solubility (mole fraction): 0.0515
In furan, 284.45 K
  solubility (mole fraction): 0.0574
In furan, 288.25 K
  solubility (mole fraction): 0.0683
In furan, 291.45 K
  solubility (mole fraction): 0.0789
In furan, 294.85 K
  solubility (mole fraction): 0.0919
In furan, 297.25 K
  solubility (mole fraction): 0.102
In n-butyl acetate, 278.05 K
  solubility (mole fraction): 0.0037
In n-butyl acetate, 281.15 K
  solubility (mole fraction): 0.0045
In n-butyl acetate, 284.35 K
  solubility (mole fraction): 0.0055
In n-butyl acetate, 288.95 K
  solubility (mole fraction): 0.0073
In n-butyl acetate, 292.05 K
  solubility (mole fraction): 0.0087
In n-butyl acetate, 295.35 K
  solubility (mole fraction): 0.0105
In n-butyl acetate, 301.45 K
  solubility (mole fraction): 0.0148
In pyridine, 278.55 K
  solubility (mole fraction): 0.232
In pyridine, 281.35 K
  solubility (mole fraction): 0.245
In pyridine, 286.95 K
  solubility (mole fraction): 0.272
In pyridine, 292.25 K
  solubility (mole fraction): 0.303
In pyridine, 297.95 K
  solubility (mole fraction): 0.339
In pyridine, 302.15 K
  solubility (mole fraction): 0.367
In pyridine, 306.25 K
  solubility (mole fraction): 0.401
In toluene, 279.75 K
  solubility (mole fraction): 0.0004
In toluene, 284.35 K
  solubility (mole fraction): 0.0006
In toluene, 287.95 K
  solubility (mole fraction): 0.0008
In toluene, 291.55 K
  solubility (mole fraction): 0.0009
In toluene, 294.95 K
  solubility (mole fraction): 0.0011
In toluene, 298.55 K
  solubility (mole fraction): 0.0014
In toluene, 305.35 K
  solubility (mole fraction): 0.002
